What was measured:
hiPS-BMECs [1] = details: cited from earlier work
hiPS-BMECs [2] = test: Permeability experiments in the 3D-BBB system (hiPS-BMECs on OrganoPlate 3-lane)
Description: (§1) The 3D-BBB system using the OrganoPlate® 3-lane plate was constructed with some modifications to the protocol published by MIMETAS. During the differentiation of hiPS-BMECs, to separate the capillary side from the brain side, extracellular matrix hydrogel composed of 4 mg/mL collagen I (Cultrex 3D Matrix Rat Collagen-I, 5 mg/mL, AMSbio), 100 mM HEPES, and 3.7 mg/mL NaHCO3 was dispensed into the middle lane. The plate was incubated at 37°C for 15 min to polymerize collagen I. After incubation, HBSS (+) without phenol red (Fujifilm Wako) was added to the gel channel to prevent the gel from drying out. […] The suspension was injected into capillary lanes precoated with fibronectin/collagen IV solution (PharmCo-Cell). After seeding the cells, the plate was incubated for 4 h at a tilt to allow the cells to adhere to the gel. After incubation, the medium was added to the capillary channels and the plate was placed on an OrganoFlow® (MIMETAS), switching between a + 7° and − 7° inclination every 8 min to create a bidirectional flow mimicking blood flow. On day 9, the medium in the capillary channels was replaced with fresh ESFM + 1% hPDS containing 10 μM MMP inhibitor.
(§2) Permeability experiments were performed on day 10, at 48 h after seeding hiPS-BMECs on the plate. […] The assay buffer containing test drugs was added to the donor side to initiate the assay, and the plate was then incubated on the OrganoFlow® at 37°C for the designated times. Transporter inhibitors were added to both the donor and receiver sides at the start of preincubation. In all permeability experiments, the amount of lucifer yellow transported through the paracellular pathway to the receiver side was measured with a SpectraMax i3x (Molecular Devices, San Jose, CA) as a measure of cell-to-cell tightness. The protocol for the permeability experiments, including the composition of the assay buffer, is described in detail in the Supplementary Material. The apparent permeability coefficient (Papp) was calculated as follows: Papp=(dQ/dt)/D0×S
(§3) where dQ/dt, D0, and S are the transport velocity of the test drugs, the initial concentration of test drugs on the donor side, and the surface area of the extracellular matrix hydrogel in the middle lane, respectively. The efflux ratio value was calculated from the Papp value in the capillary-to-brain (A-to-B) and brain-to-capillary (B-to-A) directions as follows: Effluxratio=Papp,B-to-A/Papp,A-to-B.
(§4) The test drugs were quantified using a high-performance liquid chromatography (HPLC)-tandem mass spectrometry system composed of a Nexera-XR (Shimazu, Kyoto, Japan) HPLC system connected to a Qtrap4500 (AB Sciex, Foster City, CA, USA) mass spectrometer with an electrospray ionization interface.
(§5) On day 10, remove the medium in the capillary lane of the 3D-BBB system. After removal, 100 µL of assay buffer (50 µL in each Well ➀, ②, ⑤ and ⑥) was added to the capillary and brain lane for washing. After 30 min for washing, 100 µL of a fresh assay buffer containing the drug was added to the donor side (A-to-B direction; 50 µL in each Well ➀ and ②, B-to-A direction; 50 µL in each Well ⑤ and ⑥). In addition, 100 µL of a fresh assay buffer was added to the receiver side (A-to-B direction; 50 µL in each Well ⑤ and ⑥, B-to-A direction; 50 µL in each Well ➀ and ②). Inhibitors were added on both sides of the donor and receiver to avoid a gradient in concentration. At the designed sampling time, 50 µL of assay buffer was collected from the receiver side (A-to-B direction; 25 µL in each Well ⑤ and ⑥, B-to-A direction; 25 µL in each Well ➀ and ②), and 50 µL of a fresh assay buffer was added.

BCRP = test: as above; details: human, pH 7.4, with Ko143 1 µM (BCRP inhibitor), Efflux ratio (B-to-A/A-to-B), + 1 μM Ko143 (BCRP inhibitor)
Description: as §1, §2, §3, §4, §5

[3] = as above; details: human
Description: as §1, §2, §3, §4, §5

MCTs = test: Inhibition of H+-gradient-promoted [14C] L-lactate transport in the 3D-BBB system; assay type: cell-based, human; details: 20 nM AZD3965; one lane pH 6.0, opposite lane pH 7.4
Description: Permeability experiments were performed on day 10, at 48 h after seeding hiPS-BMECs on the plate. After removal of the medium in the capillary channels, the assay buffer (pH 7.4) was added to both sides of the capillary and brain channels and preincubated on the OrganoFlow® for 30 min. The assay buffer containing test drugs was added to the donor side to initiate the assay, and the plate was then incubated on the OrganoFlow® at 37°C for the designated times. Transporter inhibitors were added to both the donor and receiver sides at the start of preincubation. In all permeability experiments, the amount of lucifer yellow transported through the paracellular pathway to the receiver side was measured with a SpectraMax i3x (Molecular Devices, San Jose, CA) as a measure of cell-to-cell tightness. […] The apparent permeability coefficient (Papp) was calculated as follows: Papp=(dQ/dt)/D0×S
On day 10, remove the medium in the capillary lane of the 3D-BBB system. After removal, 100 µL of assay buffer (50 µL in each Well ➀, ②, ⑤ and ⑥) was added to the capillary and brain lane for washing. […] At 3.5 hr after the start of permeability experiment, the transport amount of lucifer yellow on the receiver side was measured to check for leakage, and all donor and receiver were collected at 4 hr.

[4] = Permeability in the hydrogel without hiPS-BMECs (OrganoPlate 3-lane); assay type: in vitro ADME; details: pH 7.4, upper limit of the system, data not shown
human BBB = system: human BBB; parameters: method as in PMID 24947467; details: prediction for human BBB; cited from earlier work
[5] = system: monkey in vitro BBB model; parameters: method as in PMID 34575559; details: cited from earlier work
[6] = pH 7.4, Efflux ratio (B-to-A/A-to-B), Control

lucifer yellow
Papp in 2D culture of hiPS-BMECs (hiPS-BMECs [1]): 0.0845 × 10^–6 cm/s | Block of leakage by hiPS-BMECs (hiPS-BMECs [2]): more than 99%

NC(N)=NCCC[C@H](N)C(=O)O [[^3H] L-Arginine, Arginine, L-[2,3,4-^3H]]
Efflux ratio (B-to-A/A-to-B) (hiPS-BMECs [2]; Control): 0.410 | Papp B-to-A (hiPS-BMECs [2]; Control, brain-to-capillary, pH 7.4): 5.77 × 10^–6 cm/s | Papp A-to-B (hiPS-BMECs [2]; Control, capillary-to-brain, pH 7.4): 14.1 × 10^–6 cm/s

Nc1nc(Cl)nc2c1ncn2[C@H]1C[C@H](O)[C@@H](CO)O1 [Cladribine]
efflux ratio at 4 h (BCRP): 1.45 | Papp A→B at 4 h ([3]; pH 7.4): 2.69 ×10⁻⁶ cm/s | Papp B→A at 4 h ([3]; pH 7.4): 15.1 ×10⁻⁶ cm/s | efflux ratio at 4 h [3, 6]: 5.6 | Efflux ratio (B-to-A/A-to-B) (hiPS-BMECs [2]; Control): 5.61

NCC1(CC(=O)O)CCCCC1 [Gabapentin]
Papp A→B at 4 h ([3]; pH 7.4): 16 ×10⁻⁶ cm/s | Papp B→A at 4 h ([3]; pH 7.4): 6.4 ×10⁻⁶ cm/s | efflux ratio at 4 h ([3]; pH 7.4): 0.401

Cc1[nH]nc(C(F)(F)F)c1Cc1sc2c(c1C(=O)N1C[C@](C)(O)CO1)c(=O)n(C)c(=O)n2C(C)C [AZD3965]
Reduction of [14C] L-lactate transport promoted by the H+-gradient (MCTs): approximately 60%

[14CH3][14CH](O)[14C](=O)[O-].[Na+] [[^14C] L-Lactate, Lactic acid sodium salt, L-[^14C(U)]]
Efflux ratio (B-to-A/A-to-B) (hiPS-BMECs [2]; A: pH 6.0—B: pH 7.4): 0.257 | Papp A-to-B (hiPS-BMECs [2]; A: pH 6.0—B: pH 7.4): 34.1 × 10^–6 cm/s | Papp B-to-A (hiPS-BMECs [2]; A: pH 6.0—B: pH 7.4): 8.74 × 10^–6 cm/s | Papp A-to-B (hiPS-BMECs [2]; A: pH 6.0—B: pH 7.4, + 20 nM AZD3965): 12.0 × 10^–6 cm/s | Efflux ratio (B-to-A/A-to-B) (hiPS-BMECs [2]; A: pH 7.4—B: pH 6.0): 3.07 | Papp A-to-B (hiPS-BMECs [2]; A: pH 7.4—B: pH 6.0): 7.68 × 10^–6 cm/s | Papp B-to-A (hiPS-BMECs [2]; A: pH 7.4—B: pH 6.0): 23.6 × 10^–6 cm/s | Papp B-to-A (hiPS-BMECs [2]; A: pH 7.4—B: pH 6.0, + 20 nM AZD3965): 9.60 × 10^–6 cm/s | Efflux ratio (B-to-A/A-to-B) (hiPS-BMECs [2]; A: pH 7.4—B: pH 7.4): 0.944 | Papp A-to-B (hiPS-BMECs [2]; A: pH 7.4—B: pH 7.4): 19.1 × 10^–6 cm/s | Papp B-to-A (hiPS-BMECs [2]; A: pH 7.4—B: pH 7.4): 18.1 × 10^–6 cm/s

Cc1cc(=O)n(-c2ccccc2)n1C [Antipyrine]
Papp A→B at 4 h ([3]; pH 7.4): 33.4 ×10⁻⁶ cm/s | Papp B→A at 4 h ([3]; pH 7.4): 35.1 ×10⁻⁶ cm/s | efflux ratio at 4 h [3, 6]: 1.05 | Papp at 4 h [4]: 59.2 ×10⁻⁶ cm/s

C=C[C@H]1C[N@@]2CC[C@H]1C[C@@H]2[C@@H](O)c1ccnc2ccc(OC)cc12 [Quinidine]
Efflux ratio (human BBB): ~13.4 | Efflux ratio [5]: approximately 1.7 | Papp A→B at 4 h ([3]; pH 7.4): 21.6 ×10⁻⁶ cm/s | Papp B→A at 4 h ([3]; pH 7.4): 22.8 ×10⁻⁶ cm/s | efflux ratio at 4 h [3, 6]: 1.06

From publication PMC9246774, “Construction and Functional Evaluation of a Three-Dimensional Blood–Brain Barrier Model Equipped With Human Induced Pluripotent Stem Cell-Derived Brain Microvascular Endothelial Cells” (Pharmaceutical Research, 2022)
